Holding throughout (test): ≥ marks a high value that may be exact or a test limit, other limits are often not marked, values filed in µg/mL are converted to µM
In assay [1] the test system is Pluralibacter gergoviae MTCC 3826.
In assay [2] the test system is Proteus mirabilis MTCC 3158.
Assay [3] deals with Shigella flexneri MTCC 1457.
The subject of assay [4] is Corynebacterium glutamicum MTCC 2679.
Assay [5] concerns Klebsiella aerogenes MTCC 111.
The test system of assay [6] is Alcaligenes faecalis MTCC 1937.
In assay [7] the test system is Citrobacter koseri MTCC 1657.
In assay [8] the test system is Salmonella enterica subsp. enterica serovar Typhimurium ATCC 14028.
For assay [9], the system named is Staphylococcus aureus MTCC 3160.
The subject of assay [10] is Klebsiella oxytoca MTCC 2275.
Assay [11] deals with Bordetella bronchiseptica MTCC 6837.
Assay [12] deals with Alkalihalobacillus alcalophilus MTCC 860.
In assay [13] the test system is Pseudomonas aeruginosa MTCC 3542.
Assay [14] deals with Staphylococcus haemolyticus MTCC 3383.
Assay [15] relates to Escherichia coli K12 MG1655.
The subject of assay [16] is Proteus vulgaris MTCC 1771.
Assay [17] concerns Shigella boydii MTCC 11947.
Assay [18] concerns Vibrio cholerae MTCC 3904.
In assay [19] the test system is Haemophilus influenzae MTCC 621.
Assay [20] relates to Salmonella enterica MTCC 9844.
The subject of assay [21] is Enterococcus faecalis MTCC 439.
Assay [22] has as its system Klebsiella pneumoniae MTCC 7407.
In assay [23] the test system is Stenotrophomonas maltophilia MTCC 1890.
The subject of assay [24] is Citrobacter freundii MTCC 1658.
In assay [25] the test system is Acinetobacter baumannii MTCC 9829.
Assay [26] deals with Bacillus subtilis 168 HT.
Assay [27] has as its system Escherichia coli MG1655.
Assay [28] relates to Escherichia coli 078.
Assay [29] relates to Escherichia coli UB1005.
In assay [30] the test system is Bacillus subtilis ATCC 11060.
For assay [31], the system named is Staphylococcus epidermidis ATCC 12228.
In assay [32] the test system is Escherichia coli CVCC 1515.
The test system of assay [33] is Enterococcus faecalis ATCC 29212.
The subject of assay [34] is Pseudomonas aeruginosa ATCC 27853.
The subject of assay [35] is Staphylococcus aureus ATCC 29213.
The subject of assay [36] is Escherichia coli CMCC 44102.
Assay [37] concerns Pseudomonas aeruginosa ATCC 21630.
In assay [38] the test system is Salmonella enterica subsp. enterica serovar Typhimurium C77-31.
The subject of assay [39] is Escherichia coli K88.
Assay [40] has as its system Salmonella enterica subsp. enterica serovar Pullorum C79-13.
In assay [41] the test system is Escherichia coli ER2566.
In assay [42] the test system is Pseudomonas aeruginosa ATCC 10419.
The test system of assay [43] is Staphylococcus aureus ATCC 25923.
The subject of assay [44] is Pseudomonas aeruginosa ATCC 21625.

In brackets after ≈: the same amount, converted by molar mass.

As to `CC[C@H](C)[C@H](NC(=O)[C@H](C)NC(=O)[C@H](CCCCN)NC(=O)[C@@H](N)CCC(=O)O)C(=O)N[C@@H](CC(C)C)C(=O)N[C@@H](CO)C(=O)N[C@@H](C)C(=O)N[C@@H](CC(C)C)C(=O)N[C@@H](CCCCN)C(=O)N[C@@H](CC(C)C)C(=O)N[C@@H](CC(C)C)C(=O)N[C@@H](CCCN=C(N)N)C(=O)N[C@@H](CC(C)C)C(=O)N[C@@H](C)C(=O)N[C@@H](CC(C)C)C(=O)O` [EKAILSALKLLRLAL], the MIC in assay [1] was ≥ 77.5 µM; in assay [2] it was ≥ 77.5 µM; in assay [3], ≥ 77.5 µM; in assay [4] it was 19.4 µM (≈ 32 µg/mL); in assay [5], ≥ 77.5 µM; in [6], ≥ 77.5 µM. Moreover, the MIC in [7] was ≥ 77.5 µM; in [8], > 77.5 µM; in assay [9], ≥ 77.5 µM; in [10], ≥ 77.5 µM; in [11] it was ≥ 38.7 µM; in assay [12], ≥ 38.7 µM. The MIC in [13], in assay [14], in assay [15], in assay [16], in [17] and in [18] was ≥ 77.5 µM in each case. Also, the MIC in [19] was 9.68 µM (≈ 16 µg/mL); in [20] it was ≥ 77.5 µM; in [21], ≥ 77.5 µM; in assay [22] it was ≥ 77.5 µM; in assay [23] it was ≥ 77.5 µM; in assay [24], ≥ 77.5 µM. Further, the MIC in assay [25] is ≥ 77.5 µM.
With `CC[C@H](C)[C@H](NC(=O)[C@H](CCCCN)NC(=O)[C@H](Cc1ccccc1)NC(=O)[C@H](CCCN=C(N)N)NC(=O)[C@H](CCCCN)NC(=O)[C@@H](NC(=O)[C@@H](NC(=O)[C@H](Cc1ccccc1)NC(=O)CN)[C@@H](C)CC)C(C)C)C(=O)N[C@@H](CC(C)C)C(=O)N[C@H](C(=O)O)C(C)C` [GFIVKRFKILV], the MIC in assay [26] and in assay [27] was ≥ 97 µM throughout.
`CC[C@H](C)[C@H](NC(=O)[C@H](CCCCN)NC(=O)[C@H](CCCCN)NC(=O)[C@H](CC(C)C)NC(=O)[C@H](CCCN=C(N)N)NC(=O)[C@H](Cc1c[nH]c2ccccc12)NC(=O)[C@H](CCCN=C(N)N)NC(=O)[C@@H](NC(=O)[C@H](CCCCN)NC(=O)[C@H](Cc1c[nH]c2ccccc12)NC(=O)[C@H](CCCN=C(N)N)NC(=O)[C@H](CC(C)C)NC(=O)[C@H](CCCN=C(N)N)NC(=O)[C@H](CCCN=C(N)N)NC(=O)[C@H](Cc1ccccc1)NC(=O)[C@@H](N)CCCN=C(N)N)[C@@H](C)O)C(=O)N[C@@H](Cc1c[nH]c2ccccc12)C(=O)N[C@@H](Cc1c[nH]c2ccccc12)C(=O)N1CCC[C@H]1C(=O)N[C@@H](Cc1ccccc1)C(=O)N[C@@H](CC(C)C)C(=O)N[C@@H](CCCN=C(N)N)C(=O)N[C@@H](CCCN=C(N)N)C(N)=O` [RFRRLRWKTRWRLKKIWWPFLRR]: the MIC in assay [28] came out at 4.01 µM (≈ 13.4 µg/mL); in assay [29] it was 0.987 µM (≈ 3.3 µg/mL); in assay [30], 0.987 µM (≈ 3.3 µg/mL); in [31] it was 4.01 µM (≈ 13.4 µg/mL); in [32], 0.509 µM (≈ 1.7 µg/mL); in assay [33], 0.987 µM (≈ 3.3 µg/mL). In addition, the MIC in assay [34] was determined as 4.01 µM (≈ 13.4 µg/mL); in [35] it was 2 µM (≈ 6.7 µg/mL); in assay [8] it was 4.01 µM (≈ 13.4 µg/mL); in [36], 2 µM (≈ 6.7 µg/mL); in [37], 4.01 µM (≈ 13.4 µg/mL); in assay [38], 2 µM (≈ 6.7 µg/mL). Further, the MIC in [39] was 0.509 µM (≈ 1.7 µg/mL); in [40] it was 4.01 µM (≈ 13.4 µg/mL); in assay [41] it was 0.987 µM (≈ 3.3 µg/mL); in [42], 2 µM (≈ 6.7 µg/mL); in assay [43], 7.99 µM (≈ 26.7 µg/mL); in assay [44] it was 2 µM (≈ 6.7 µg/mL).
